Converted amounts (≈) assume the structure as drawn. Where two headings read alike, the source gives them in different places.
How the values were obtained:
[1] = test system: B. subtilis (G + ve) (ATCC 6633); test: Disc diffusion antibacterial susceptibility; type: cell-based, Bacillus subtilis; details: B. subtilis (ATCC 6633), triplicate, NI = No inhibition
Excerpt: (§1) The methodology employed to determine the antibacterial properties of the synthesized compounds (each compound dissolved in dimethyl sulfoxide 7% DMSO) involved the use of the disc diffusion approach. This was done following a previously described method with slight modifications. First, an inoculum was obtained from a bacterial colony and diluted to a concentration of 0.5 McFarland standard in sterile saltwater containing 0.9% NaCl. The suspension was then transferred to a sterile tube and allowed to settle for 5 min, after which the top homogeneous solution was transferred to another sterile tube. The concentration of the solution was adjusted to a 0.5 McFarland turbidity standard to obtain an inoculum of approximately 10^6 CFU/mL.

[2] = test system: E. coli (G − ve) (ATCC 8739); test: Disc diffusion antibacterial susceptibility; type: cell-based, Escherichia coli; details: E. coli (ATCC 8739), triplicate, NI = No inhibition
Excerpt: as §1

[3] = test system: P. aeruginosa (G − ve) (ATCC 9027); test: Disc diffusion antibacterial susceptibility; type: cell-based; details: for Diameter of Inhibition Zones: P. aeruginosa (ATCC 9027), triplicate, NI = No inhibition; for antibacterial activity category: P. aeruginosa, category by zone
Excerpt: as §1

[4] = test system: S. aureus (G + ve) (BTCC 19); test: Disc diffusion antibacterial susceptibility; type: cell-based; details: for Diameter of Inhibition Zones: S. aureus (BTCC 19), triplicate, NI = No inhibition
Excerpt: as §1

[5] = test system: S. typhi (G − ve) (AE 14612); test: Disc diffusion antibacterial susceptibility; type: cell-based, Salmonella typhi; details: S. typhi (AE 14612), triplicate, NI = No inhibition
Excerpt: as §1

[6] = test system: Aspergillus niger (ATCC 16404); test: Antifungal poisoned food method, mycelial growth; type: cell-based; details: NI: no inhibition
Experimental: (§2) The food poisoning method with potato dextrose agar (PDA) as the culture medium was used to test the antifungal action. Twenty milliliters of 45 °C sterilized, melted potato dextrose agar medium (PDA) was placed into sterile 70-mm glass Petri plates. The “poisoned food” method was used to determine how the synthesized MDGP (1) derivatives affected the growth of the fungal mycelium.

[7] = test system: Aspergillus flavus (ATCC 204304); test: Antifungal poisoned food method, mycelial growth; type: cell-based; details: NI: no inhibition
Experimental: as §2

B. cereus (BTCC 19) = test: MIC and MBC by broth dilution; type: cell-based; details: for MBC: eradicates 99.9% of inoculum
Experimental: (§3) To determine the minimum inhibitory concentration (MIC) of the synthesized compounds against the tested bacterial strains, a dilution method was employed. The objective was to establish the lowest concentration of the compound at which approximately 90% of bacterial growth was inhibited. To this end, a bacterial suspension of 300 μL at a concentration of 0.5 McFarland standard was seeded into individual tubes of 9 mL nutrient broth, with each tube receiving 1 mL of different concentrations of the synthesized compound at twofold serial dilutions and 7% DMSO, which served as the negative control. The tubes were then kept at 37 °C for a whole night. The MIC and MBC values were determined by using the naked eye to compare the turbidity of the tube to that of a reference medium with a 0.5 McFarland value.

[8] = test system: P. aeruginosa (ATCC 9027); test: MIC and MBC by broth dilution; type: cell-based
Experimental: as §3

E. coli (ATCC 8739) = test: MIC and MBC by broth dilution; type: cell-based, Escherichia coli; details: for MBC: eradicates 99.9% of inoculum
Experimental: as §3

B. subtilis (ATCC 6633) = test: MIC and MBC by broth dilution; type: cell-based, Bacillus subtilis
Experimental: as §3

S. typhi (AE 14612) = test: MIC and MBC by broth dilution; type: cell-based, Salmonella typhi
Experimental: as §3

[9] = Pseudomonas aeruginosa, ATCC9027, eradicates 99.9% of inoculum, read-out: MBC
[10] = Pseudomonas aeruginosa, ATCC9027, read-out: MIC
[11] = Escherichia coli, ATCC8739, E. coli, read-out: MBC
[12] = Escherichia coli, ATCC8739, E. coli, read-out: MIC
[13] = Bacillus subtilis, ATCC6633, eradicates 99.9% of inoculum, read-out: MBC
[14] = Bacillus subtilis, ATCC6633, read-out: MIC
[15] = S. typhi, eradicates 99.9% of inoculum

## CC[C@H]1OC(=O)[C@H](C)[C@@H](O[C@H]2C[C@@](C)(OC)[C@@H](O)[C@H](C)O2)[C@H](C)[C@@H](O[C@@H]2O[C@H](C)C[C@H](N(C)C)[C@H]2O)[C@](C)(O)C[C@@H](C)CN(C)[C@H](C)[C@@H](O)[C@]1(C)O [Azithromycin, reference compound]
[1]
  Diameter of Inhibition Zones: ** 18.25 ± 0.2 mm
[2]
  Diameter of Inhibition Zones: ** 17.25 ± 0.2 mm
[3]
  Diameter of Inhibition Zones: ** 18.5 ± 0.3 mm
[4]
  Diameter of Inhibition Zones: ** 17.50 ± 0.2 mm
[5]
  Diameter of Inhibition Zones: ** 18.0 ± 0.1 mm

## CO[C@@H]1O[C@H](COC(=O)c2ccccc2Br)[C@H](O)[C@H](O)[C@H]1O [Compound 2, Methyl 6-O-(2-bromobenzoyl)-β-D-galactopyranoside]
[6]
  % Inhibition of Fungal Mycelial Growth: * 72.88 ± 1.0%
[7]
  % Inhibition of Fungal Mycelial Growth: * 85.66 ± 0.9%
[3]
  Diameter of Inhibition Zones: * 15.00 ± 0.1 mm
  antibacterial activity category: high activity (high activity at 15 mm or more)
[4]
  Diameter of Inhibition Zones: 10.50 ± 0.2 mm
[5]
  Diameter of Inhibition Zones: 11.25 ± 0.2 mm

## CCCCCCCCCCCC(=O)O[C@H]1[C@@H](OC(=O)CCCCCCCCCCC)[C@@H](COC(=O)c2ccccc2Br)O[C@@H](OC)[C@@H]1OC(=O)CCCCCCCCCCC [Compound 3, Methyl 6-O-(2-bromobenzoyl)-2,3,4-tri-O-lauroyl-β-D-galactopyranoside]
B. cereus (BTCC 19)
  MIC: 8000 µg/mL (≈ 8.66 mM)
  MBC: 8000 µg/mL (≈ 8.66 mM)
B. cereus (BTCC 19); Bacillus cereus, read-out: MBC
  MBC: 8000 µg/mL (≈ 8.66 mM)
B. cereus (BTCC 19); Bacillus cereus, read-out: MIC
  MIC: 8000 µg/mL (≈ 8.66 mM)
[8]; [9]
  MBC: 16000 µg/mL (≈ 17.3 mM)
[8]; [10]
  MIC: 250 µg/mL (≈ 0.271 mM)
[8]; eradicates 99.9% of inoculum
  MBC: 16000 µg/mL (≈ 17.3 mM)
[6]
  % Inhibition of Fungal Mycelial Growth: * 64.83 ± 1.1%
[7]
  % Inhibition of Fungal Mycelial Growth: * 84.02 ± 1.3%
E. coli (ATCC 8739); E. coli
  MIC: 2000 µg/mL (≈ 2.16 mM)
  MBC: 16000 µg/mL (≈ 17.3 mM)
E. coli (ATCC 8739); [11]
  MBC: 16000 µg/mL (≈ 17.3 mM)
E. coli (ATCC 8739); [12]
  MIC: 2000 µg/mL (≈ 2.16 mM)
[1]
  Diameter of Inhibition Zones: * 13.00 ± 0.1 mm
[2]
  Diameter of Inhibition Zones: 11.00 ± 0.2 mm
[3]
  Diameter of Inhibition Zones: 11.25 ± 0.3 mm
[4]
  Diameter of Inhibition Zones: * 15.50 ± 0.3 mm
[4]; category by zone
  antibacterial activity category: high activity (high activity at 15 mm or more)
B. subtilis (ATCC 6633)
  MIC: 8000 µg/mL (≈ 8.66 mM)
B. subtilis (ATCC 6633); [13]
  MBC: 16000 µg/mL (≈ 17.3 mM)
B. subtilis (ATCC 6633); [14]
  MIC: 8000 µg/mL (≈ 8.66 mM)
B. subtilis (ATCC 6633); eradicates 99.9% of inoculum
  MBC: 16000 µg/mL (≈ 17.3 mM)
[5]
  Diameter of Inhibition Zones: * 12.25 ± 0.1 mm
S. typhi (AE 14612); [15]
  MBC: 8000 µg/mL (≈ 8.66 mM)
S. typhi (AE 14612); Salmonella enterica, TYPHI
  MBC: 8000 µg/mL (≈ 8.66 mM)
  MIC: 125 µg/mL (≈ 0.135 mM)

## CCCCCCCCCCCCCC(=O)O[C@H]1[C@@H](OC(=O)CCCCCCCCCCCCC)[C@@H](COC(=O)c2ccccc2Br)O[C@@H](OC)[C@@H]1OC(=O)CCCCCCCCCCCCC [Compound 4, Methyl 6-O-(2-bromobenzoyl)-2,3,4-tri-O-myristoyl-β-D-galactopyranoside]
[6]
  % Inhibition of Fungal Mycelial Growth: * 71.19 ± 1.0%

## CO[C@@H]1O[C@H](COC(=O)c2ccccc2Br)[C@H](OC(=O)c2cccc(Cl)c2)[C@H](OC(=O)c2cccc(Cl)c2)[C@H]1OC(=O)c1cccc(Cl)c1 [Compound 5, Methyl 6-O-(2-bromobenzoyl)-2,3,4-tri-O-(3-chlorobenzoyl)-β-D-galactopyranoside]
[6]
  % Inhibition of Fungal Mycelial Growth: 48.73 ± 1.1%
[7]
  % Inhibition of Fungal Mycelial Growth: * 81.97 ± 1.0%
[3]
  Diameter of Inhibition Zones: * 18.25 ± 0.3 mm
  antibacterial activity category: high activity (high activity at 15 mm or more)

## CO[C@@H]1O[C@H](COC(=O)c2ccccc2Br)[C@H](OC(=O)c2ccc(Cl)cc2)[C@H](OC(=O)c2ccc(Cl)cc2)[C@H]1OC(=O)c1ccc(Cl)cc1 [Compound 6, Methyl 6-O-(2-bromobenzoyl)-2,3,4-tri-O-(4-chlorobenzoyl)-β-D-galactopyranoside]
B. cereus (BTCC 19)
  MIC: 2000 µg/mL (≈ 2.52 mM)
  MBC: 8000 µg/mL (≈ 10.1 mM)
B. cereus (BTCC 19); Bacillus cereus, read-out: MBC
  MBC: 8000 µg/mL (≈ 10.1 mM)
B. cereus (BTCC 19); Bacillus cereus, read-out: MIC
  MIC: 2000 µg/mL (≈ 2.52 mM)
[8]
  MIC: 8000 µg/mL (≈ 10.1 mM)
[8]; [9]
  MBC: 16000 µg/mL (≈ 20.2 mM)
[8]; [10]
  MIC: 8000 µg/mL (≈ 10.1 mM)
[8]; eradicates 99.9% of inoculum
  MBC: 16000 µg/mL (≈ 20.2 mM)
[6]
  % Inhibition of Fungal Mycelial Growth: * 78.81 ± 1.0%
[7]
  % Inhibition of Fungal Mycelial Growth: * 81.97 ± 1.2%
E. coli (ATCC 8739); E. coli
  MIC: 1000 µg/mL (≈ 1.26 mM)
  MBC: 8000 µg/mL (≈ 10.1 mM)
E. coli (ATCC 8739); [11]
  MBC: 16000 µg/mL (≈ 20.2 mM)
E. coli (ATCC 8739); [12]
  MIC: 1000 µg/mL (≈ 1.26 mM)
[1]
  Diameter of Inhibition Zones: * 12.75 ± 0.1 mm
[2]
  Diameter of Inhibition Zones: 11.25 ± 0.2 mm
[3]
  Diameter of Inhibition Zones: 11.50 ± 0.1 mm
[4]
  Diameter of Inhibition Zones: 11.50 ± 0.3 mm
B. subtilis (ATCC 6633)
  MIC: 500 µg/mL (≈ 0.631 mM)
B. subtilis (ATCC 6633); [13]
  MBC: 16000 µg/mL (≈ 20.2 mM)
B. subtilis (ATCC 6633); [14]
  MIC: 500 µg/mL (≈ 0.631 mM)
B. subtilis (ATCC 6633); eradicates 99.9% of inoculum
  MBC: 16000 µg/mL (≈ 20.2 mM)
[5]
  Diameter of Inhibition Zones: * 13.00 ± 0.3 mm
S. typhi (AE 14612); S. typhi
  MIC: 2000 µg/mL (≈ 2.52 mM)
S. typhi (AE 14612); [15]
  MBC: 8000 µg/mL (≈ 10.1 mM)
S. typhi (AE 14612); Salmonella enterica, TYPHI
  MBC: 8000 µg/mL (≈ 10.1 mM)
  MIC: 2000 µg/mL (≈ 2.52 mM)

## CO[C@@H]1O[C@H](COC(=O)c2ccccc2Br)[C@H](OC(=O)c2ccc(C(C)(C)C)cc2)[C@H](OC(=O)c2ccc(C(C)(C)C)cc2)[C@H]1OC(=O)c1ccc(C(C)(C)C)cc1 [Compound 7, Methyl 6-O-(2-bromobenzoyl)-2,3,4-tri-O-(4-t-butylbenzoyl)-β-D-galactopyranoside]
[1]
  Diameter of Inhibition Zones: 7.75 ± 0.1 mm
[2]
  Diameter of Inhibition Zones: 8.50 ± 0.1 mm
[3]
  Diameter of Inhibition Zones: 7.50 ± 0.3 mm
[5]
  Diameter of Inhibition Zones: 9.00 ± 0.3 mm

## C[C@@H]1[C@H](O)[C@@H](C)/C=C/C=C/CC/C=C/C=C/C=C/C=C/C(O[C@H]2O[C@H](C)[C@@H](O)[C@H](N)[C@@H]2O)CC2O[C@](O)(CC(O)C(O)CCC(O)CC(O)CC(O)CC(=O)O[C@H]1C)CC(O)C2C(=O)O (stereo partly drawn) [Nystatin, reference compound]
[6]
  % Inhibition of Fungal Mycelial Growth: ** 66.7 ± 1.1%
[7]
  % Inhibition of Fungal Mycelial Growth: ** 65.2 ± 1.2%
